Legend:
MGC803 = assay: Tumor cell proliferation inhibition (CellTiter-Meiluncell Luminescent Cell Viability Assay), MGC803; conditions: Homo sapiens, MGC-803, 96 h, read-out: inhibitory activity (IC50, nM) against tumor cells proliferation, MGC803
TMD8 = assay: Tumor cell proliferation inhibition (CellTiter-Meiluncell Luminescent Cell Viability Assay), TMD8; conditions: Homo sapiens, TMD8, 96 h, read-out: inhibitory activity (IC50, nM) against tumor cells proliferation, TMD8
Experimental: (§1) The tumor cells used herein were cultured in a cell culture medium listed in table 2 at 37°C in an incubator with 5% CO2. Prior to experimentation, all cell lines used were correctly identified by STR profiling, and tested negative for mycoplasma contamination using a mycoplasma detection kit through routine screenings.
(§2) On the following day, the test compounds of the present disclosure were subjected to serial dilution. […] Subsequently, 0.5 µL of the test compound dilution was transferred into the 96-well plate containing the cells, with each well containing 100 µL of cell culture medium. […] Into the 96-well plate, the diluted test compounds and corresponding detection reagents were added, resulting in final test compound concentrations of 500 nM and 10 nM, respectively. The experimental procedure is described below using the diluted 2 µM test compound as an example.
(§3) After the cells were treated with the compounds of the present disclosure for a specified period (the treatment durations were shown in Table 3), the cell viability assay reagent was added to the culture medium according to the kit's instructions to determine cell viability. […] All controls were treated using the same procedure as the compounds of the present disclosure. The growth inhibition curves for the compounds of the present disclosure were plotted using Prism GraphPad software, and the IC50 values were calculated therefrom.

[1] = molecular target: T1, human Cereblon WT GST-tagged protein (Homo sapiens, UniProt Q96SW2); assay: CRBN-binding affinity by HTRF (CEREBLON BINDING kit); conditions: HTRF inhibitory activity, CEREBLON BINDING kit; read-out: HTRF IC50
T1 construct: purchased CISBIO 64BDCRBNPEH
T1 sequence (Q96SW2 whole entry): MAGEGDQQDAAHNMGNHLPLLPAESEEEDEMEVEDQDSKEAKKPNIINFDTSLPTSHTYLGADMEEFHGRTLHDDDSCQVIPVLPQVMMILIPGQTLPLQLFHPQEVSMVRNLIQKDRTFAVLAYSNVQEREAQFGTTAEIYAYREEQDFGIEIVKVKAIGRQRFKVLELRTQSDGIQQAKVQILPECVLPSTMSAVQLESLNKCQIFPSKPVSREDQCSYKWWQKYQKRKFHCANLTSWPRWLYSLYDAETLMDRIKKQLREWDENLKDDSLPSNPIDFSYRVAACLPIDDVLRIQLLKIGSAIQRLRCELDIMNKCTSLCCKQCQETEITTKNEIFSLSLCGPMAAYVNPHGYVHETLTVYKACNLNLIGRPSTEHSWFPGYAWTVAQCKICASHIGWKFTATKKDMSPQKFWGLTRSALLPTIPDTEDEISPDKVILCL

Vcap = assay: Tumor cell proliferation inhibition (CellTiter-Meiluncell Luminescent Cell Viability Assay), Vcap; conditions: Homo sapiens, 96 h, read-out: inhibitory activity (IC50, nM) against tumor cells proliferation, Vcap
Experimental: as §1, §2, §3

IKZF2 = molecular target: T2, IKZF2 (Homo sapiens, UniProt Q96SW2+Q9UKS7); assay: Western-blot assay of substrate protein degradation in hPBMCs, IKZF2; format: cell-based; conditions: 24 hours of compound treatment, compounds tested at 50 nM and 500 nM (concentration of the table not stated)
T2 construct: endogenous in cells; host or cells: hPBMCs (Milecell Biotechnologies)
T2 sequence (Q9UKS7 whole entry): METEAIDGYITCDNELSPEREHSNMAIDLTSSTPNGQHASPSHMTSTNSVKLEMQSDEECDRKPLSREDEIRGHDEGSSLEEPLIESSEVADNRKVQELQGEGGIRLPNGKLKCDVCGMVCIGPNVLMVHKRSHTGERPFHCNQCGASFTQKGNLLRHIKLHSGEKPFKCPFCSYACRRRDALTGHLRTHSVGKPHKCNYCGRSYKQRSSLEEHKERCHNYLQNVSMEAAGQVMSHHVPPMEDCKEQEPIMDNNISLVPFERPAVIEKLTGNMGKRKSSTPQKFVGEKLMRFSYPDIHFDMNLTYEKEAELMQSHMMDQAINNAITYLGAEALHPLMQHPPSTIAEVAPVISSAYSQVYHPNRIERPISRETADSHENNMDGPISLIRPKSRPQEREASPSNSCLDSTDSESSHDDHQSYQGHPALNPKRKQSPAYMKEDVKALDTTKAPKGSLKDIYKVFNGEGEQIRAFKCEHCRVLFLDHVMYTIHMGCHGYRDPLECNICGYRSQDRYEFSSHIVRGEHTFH
T2 sequence (Q96SW2 whole entry): as the sequence (Q96SW2 whole entry) above
T2 sequence (Q16531 whole entry partner): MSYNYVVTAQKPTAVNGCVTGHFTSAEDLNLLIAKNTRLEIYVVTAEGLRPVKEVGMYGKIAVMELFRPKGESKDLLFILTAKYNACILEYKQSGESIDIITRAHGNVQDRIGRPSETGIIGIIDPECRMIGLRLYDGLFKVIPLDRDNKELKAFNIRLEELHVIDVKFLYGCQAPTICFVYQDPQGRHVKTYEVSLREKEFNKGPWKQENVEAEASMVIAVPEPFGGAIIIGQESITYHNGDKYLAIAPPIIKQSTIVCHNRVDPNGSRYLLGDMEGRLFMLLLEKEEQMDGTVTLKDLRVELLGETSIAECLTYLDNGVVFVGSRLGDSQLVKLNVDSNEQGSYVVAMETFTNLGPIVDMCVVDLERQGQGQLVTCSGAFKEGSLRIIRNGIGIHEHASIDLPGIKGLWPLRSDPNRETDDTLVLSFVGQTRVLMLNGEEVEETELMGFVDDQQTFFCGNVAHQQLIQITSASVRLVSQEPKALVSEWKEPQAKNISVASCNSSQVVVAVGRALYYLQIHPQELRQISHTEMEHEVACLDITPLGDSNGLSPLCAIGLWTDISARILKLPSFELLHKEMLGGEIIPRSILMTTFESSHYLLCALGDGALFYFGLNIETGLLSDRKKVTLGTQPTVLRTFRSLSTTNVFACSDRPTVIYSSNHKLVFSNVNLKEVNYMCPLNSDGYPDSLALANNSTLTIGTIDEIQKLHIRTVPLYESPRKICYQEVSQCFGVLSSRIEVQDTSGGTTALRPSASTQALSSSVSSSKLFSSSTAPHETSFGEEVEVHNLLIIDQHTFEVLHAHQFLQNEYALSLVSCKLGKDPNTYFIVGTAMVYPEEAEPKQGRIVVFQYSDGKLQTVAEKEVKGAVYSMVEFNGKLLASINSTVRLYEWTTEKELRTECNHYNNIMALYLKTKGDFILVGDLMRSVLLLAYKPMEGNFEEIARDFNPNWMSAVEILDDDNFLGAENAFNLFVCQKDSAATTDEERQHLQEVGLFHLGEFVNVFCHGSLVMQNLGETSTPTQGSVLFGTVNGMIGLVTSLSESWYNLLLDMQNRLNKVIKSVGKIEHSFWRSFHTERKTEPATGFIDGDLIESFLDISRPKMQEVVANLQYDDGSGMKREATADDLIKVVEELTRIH

CAL-62 = assay: Tumor cell proliferation inhibition (CellTiter-Meiluncell Luminescent Cell Viability Assay), CAL-62; conditions: Homo sapiens, CAL-62, 96 h, read-out: inhibitory activity (IC50, nM) against tumor cells proliferation, CAL-62
IKZF3 = molecular target: T3, IKZF3 (Homo sapiens, UniProt Q96SW2+Q9UKT9); assay: Western-blot assay of substrate protein degradation in hPBMCs, IKZF3; format: cell-based; conditions: 24 hours of compound treatment, compounds tested at 50 nM and 500 nM (concentration of the table not stated)
T3 construct: endogenous in cells; host or cells: hPBMCs (Milecell Biotechnologies)
T3 sequence (Q9UKT9 whole entry): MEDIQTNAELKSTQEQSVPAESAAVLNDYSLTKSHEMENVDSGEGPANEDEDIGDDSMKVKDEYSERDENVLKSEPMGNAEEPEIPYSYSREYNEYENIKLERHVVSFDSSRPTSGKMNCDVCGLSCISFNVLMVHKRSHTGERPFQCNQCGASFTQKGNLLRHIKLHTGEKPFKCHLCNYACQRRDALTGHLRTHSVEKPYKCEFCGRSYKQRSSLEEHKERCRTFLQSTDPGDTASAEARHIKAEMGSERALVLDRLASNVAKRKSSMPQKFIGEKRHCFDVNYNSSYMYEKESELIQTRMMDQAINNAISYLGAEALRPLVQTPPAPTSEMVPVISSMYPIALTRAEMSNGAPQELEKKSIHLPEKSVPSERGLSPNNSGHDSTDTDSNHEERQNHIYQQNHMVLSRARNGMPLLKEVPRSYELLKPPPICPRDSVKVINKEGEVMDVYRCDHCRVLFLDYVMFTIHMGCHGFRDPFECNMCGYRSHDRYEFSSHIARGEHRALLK
T3 sequence (Q96SW2 whole entry): as the sequence (Q96SW2 whole entry) above
T3 sequence (Q16531 whole entry partner): as the sequence (Q16531 whole entry partner) above

SW620 = assay: Tumor cell proliferation inhibition (CellTiter-Meiluncell Luminescent Cell Viability Assay), SW620; conditions: Homo sapiens, SW-620, 96 h, read-out: inhibitory activity (IC50, nM) against tumor cells proliferation, SW620
Jurkat = assay: Tumor cell proliferation inhibition (CellTiter-Meiluncell Luminescent Cell Viability Assay), Jurkat; conditions: Homo sapiens, 96 h, read-out: inhibitory activity (IC50, nM) against tumor cells proliferation, Jurkat
Experimental: as §1, §2, §3

CK1α = molecular target: T4, CK1α (Homo sapiens, UniProt P48729+Q96SW2); assay: Western-blot assay of substrate protein degradation in hPBMCs, CK1α; format: cell-based; conditions: 24 hours of compound treatment, compounds tested at 50 nM and 500 nM (concentration of the table not stated)
T4 construct: endogenous in cells; host or cells: hPBMCs (Milecell Biotechnologies)
T4 sequence (P48729 whole entry): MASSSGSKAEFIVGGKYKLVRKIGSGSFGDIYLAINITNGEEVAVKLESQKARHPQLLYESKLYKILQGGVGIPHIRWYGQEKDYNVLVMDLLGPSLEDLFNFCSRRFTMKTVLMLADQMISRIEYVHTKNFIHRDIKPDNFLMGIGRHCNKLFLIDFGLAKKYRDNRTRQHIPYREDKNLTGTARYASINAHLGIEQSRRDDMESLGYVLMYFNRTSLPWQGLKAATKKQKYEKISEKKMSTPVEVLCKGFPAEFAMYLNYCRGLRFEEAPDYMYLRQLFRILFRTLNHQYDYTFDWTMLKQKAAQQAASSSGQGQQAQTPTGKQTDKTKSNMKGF
T4 sequence (Q96SW2 whole entry): as the sequence (Q96SW2 whole entry) above
T4 sequence (Q16531 whole entry partner): as the sequence (Q16531 whole entry partner) above

WEE1 = molecular target: T5, WEE1 (Homo sapiens, UniProt P30291+Q96SW2); assay: Western-blot assay of substrate protein degradation in hPBMCs, WEE1; format: cell-based; conditions: 24 hours of compound treatment, compounds tested at 50 nM and 500 nM (concentration of the table not stated)
T5 construct: endogenous in cells; host or cells: hPBMCs (Milecell Biotechnologies)

GSPT1 = molecular target: T6, GSPT1 (Homo sapiens, UniProt P15170+Q96SW2); assay: Western-blot assay of substrate protein degradation in hPBMCs, GSPT1; format: cell-based; conditions: 24 hours of compound treatment, compounds tested at 50 nM and 500 nM (concentration of the table not stated)
T6 construct: endogenous in cells; host or cells: hPBMCs (Milecell Biotechnologies)
T6 sequence (P15170 whole entry): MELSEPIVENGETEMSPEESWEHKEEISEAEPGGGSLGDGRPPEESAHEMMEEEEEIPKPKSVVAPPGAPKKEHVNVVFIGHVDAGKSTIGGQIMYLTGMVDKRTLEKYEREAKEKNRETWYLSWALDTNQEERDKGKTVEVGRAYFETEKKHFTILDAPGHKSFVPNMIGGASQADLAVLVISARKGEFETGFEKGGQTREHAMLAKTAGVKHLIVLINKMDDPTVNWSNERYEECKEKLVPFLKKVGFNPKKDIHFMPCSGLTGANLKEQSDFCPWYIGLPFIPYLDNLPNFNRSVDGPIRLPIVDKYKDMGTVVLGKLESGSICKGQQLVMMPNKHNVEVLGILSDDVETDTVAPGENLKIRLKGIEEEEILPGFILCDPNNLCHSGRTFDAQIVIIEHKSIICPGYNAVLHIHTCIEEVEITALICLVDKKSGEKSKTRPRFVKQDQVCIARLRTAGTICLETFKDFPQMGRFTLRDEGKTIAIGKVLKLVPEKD
T6 sequence (Q96SW2 whole entry): as the sequence (Q96SW2 whole entry) above
T6 sequence (Q16531 whole entry partner): as the sequence (Q16531 whole entry partner) above

IKZF1 = molecular target: T7, IKZF1 (Homo sapiens, UniProt Q13422+Q96SW2); assay: Western-blot assay of substrate protein degradation in hPBMCs, IKZF1; format: cell-based; conditions: 24 hours of compound treatment, compounds tested at 50 nM and 500 nM (concentration of the table not stated)
T7 construct: endogenous in cells; host or cells: hPBMCs (Milecell Biotechnologies)
T7 sequence (Q13422 whole entry): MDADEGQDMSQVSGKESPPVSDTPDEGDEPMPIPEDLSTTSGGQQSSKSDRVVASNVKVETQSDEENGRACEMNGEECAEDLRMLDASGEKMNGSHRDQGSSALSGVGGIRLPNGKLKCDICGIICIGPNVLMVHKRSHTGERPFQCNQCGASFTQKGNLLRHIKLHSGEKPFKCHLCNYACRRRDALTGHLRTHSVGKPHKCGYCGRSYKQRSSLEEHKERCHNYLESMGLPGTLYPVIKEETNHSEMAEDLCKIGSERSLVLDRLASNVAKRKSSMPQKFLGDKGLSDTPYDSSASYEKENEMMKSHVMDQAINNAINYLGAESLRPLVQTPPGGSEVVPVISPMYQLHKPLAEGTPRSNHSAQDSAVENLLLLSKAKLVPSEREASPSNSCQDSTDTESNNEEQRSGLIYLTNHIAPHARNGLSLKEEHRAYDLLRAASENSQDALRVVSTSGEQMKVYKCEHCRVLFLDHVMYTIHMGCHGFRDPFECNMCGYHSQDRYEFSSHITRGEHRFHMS
T7 sequence (Q96SW2 whole entry): as the sequence (Q96SW2 whole entry) above
T7 sequence (Q16531 whole entry partner): as the sequence (Q16531 whole entry partner) above

CCRF-CEM = assay: Tumor cell proliferation inhibition (CellTiter-Meiluncell Luminescent Cell Viability Assay), CCRF-CEM; conditions: Homo sapiens, 96 h, read-out: inhibitory activity (IC50, nM) against tumor cells proliferation, CCRF-CEM
Experimental: as §1, §2, §3

[2] = tested on: Human acute T lymphocytic leukemia cells (Molt-4); assay: Tumor cell proliferation inhibition (CellTiter-Meiluncell Luminescent Cell Viability Assay), Molt-4; conditions: MOLT-4, 96 h, read-out: inhibitory activity (IC50, nM) against tumor cells proliferation, Molt 4
NCI-H1975 = assay: Tumor cell proliferation inhibition (CellTiter-Meiluncell Luminescent Cell Viability Assay), NCI-H1975; conditions: Homo sapiens, NCI-H1975, 96 h, read-out: inhibitory activity (IC50, nM) against tumor cells proliferation, H1975
MM.1R = assay: Tumor cell proliferation inhibition (CellTiter-Meiluncell Luminescent Cell Viability Assay), MM.1R; conditions: Homo sapiens, 96 h, read-out: inhibitory activity (IC50, nM) against tumor cells proliferation, MM.1R
Experimental: as §1, §2, §3

[3] = tested on: Human breast cancer cells (MDA-MB-231); assay: Tumor cell proliferation inhibition (CellTiter-Meiluncell Luminescent Cell Viability Assay), MDA-MB-231; conditions: MDA-MB-231, 96 h, read-out: inhibitory activity (IC50, nM) against tumor cells proliferation, MDA-MB-231

| SMILES | IC50 (MGC803) [nM] | IC50 (TMD8) [nM] | IC50 [1] [nM] | IC50 (Vcap) [nM] | IKZF2 substrate protein remaining % (IKZF2) | IC50 (CAL-62) [nM] | IKZF3 substrate protein remaining % (IKZF3) | IC50 (SW620) [nM] | IC50 (Jurkat) [nM] | CK1a substrate protein remaining % (CK1α) | Weel substrate protein remaining % (WEE1) | GSPT1 substrate protein remaining % (GSPT1) | IKZF 1 substrate protein remaining % (IKZF1) | IC50 (CCRF-CEM) [nM] | IC50 [2] [nM] | IC50 (NCI-H1975) [nM] | IC50 (MM.1R) [nM] | IC50 [3] [nM] |
| --- | --- | --- | --- | --- | --- | --- | --- | --- | --- | --- | --- | --- | --- | --- | --- | --- | --- | --- |
| Cc1ccc(Sc2ccccc2N2CCN(Cc3ccc4c(c3)CN(C3CCC(=O)NC3=O)C4=O)CC2)c(C)c1 (stereo not drawn) [GT-04203, 3-(5-((4-(2-((2,4-dimethylphenyl)thio)phenyl)piperazin-1-yl)methyl)-1-oxoisoindolin-2-yl)piperidine-2,6-dione] | 100 to 500 | 10 to 50 | 500 to 1000 | 5 to 10 | A (0% ≤ substrate protein remaining % ≤ 80%) | 5 to 10 | A (0% ≤ substrate protein remaining % ≤ 80%) | 10 to 50 | 5 to 10 | A (0% ≤ substrate protein remaining % ≤ 80%) | A (0% ≤ substrate protein remaining % ≤ 80%) | A (0% ≤ substrate protein remaining % ≤ 80%) | A (0% ≤ substrate protein remaining % ≤ 80%) | 5 to 10 | – | – | – | – |
| O=C1CCC(N2Cc3cc(CN4CCN(c5cccc(Cl)c5Cl)CC4)ccc3C2=O)C(=O)N1 (stereo not drawn) [GT-04201, 3-(5-((4-(2,3-dichlorophenyl)piperazin-1-yl)methyl)-1-oxoisoindolin-2-yl)piperidine-2,6-dione] | 10 to 50 | 10 to 50 | 1000 to 1500 | 5 to 10 | A (0% ≤ substrate protein remaining % ≤ 80%) | 1 to 5 | B (80%< substrate protein remaining %≤ 100%) | 50 to 100 | 1 to 5 | A (0% ≤ substrate protein remaining % ≤ 80%) | A (0% ≤ substrate protein remaining % ≤ 80%) | A (0% ≤ substrate protein remaining % ≤ 80%) | B (80%< substrate protein remaining %≤ 100%) | 1 to 5 | – | – | – | – |
| O=C1CCC(N2Cc3cc(CN4CCN(c5cccc(C(F)(F)F)n5)CC4)ccc3C2=O)C(=O)N1 (stereo not drawn) [GT-04432, 3-(1-oxo-5-((4-(6-(trifluoromethyl)pyridin-2-yl)piperazin-1-yl)methyl)isoindolin-2-yl)piperidine-2,6-dione] | 100 to 500 | – | 500 to 1000 | 10 to 50 | A (0% ≤ substrate protein remaining % ≤ 80%) | 10 to 50 | A (0% ≤ substrate protein remaining % ≤ 80%) | 100 to 500 | 1 to 5 | B (80%< substrate protein remaining %≤ 100%) | A (0% ≤ substrate protein remaining % ≤ 80%) | A (0% ≤ substrate protein remaining % ≤ 80%) | A (0% ≤ substrate protein remaining % ≤ 80%) | 5 to 10 | 5 to 10 | 100 to 500 | 5 to 10 | 500 to 1000 |
| Cc1ccc(Cl)cc1N1CCN(Cc2ccc3c(c2)CN(C2CCC(=O)NC2=O)C3=O)CC1 (stereo not drawn) [GT-04440, 3-(5-((4-(5-chloro-2-methylphenyl)piperazin-1-yl)methyl)-1-oxoisoindolin-2-yl)piperidine-2,6-dione] | 500 to 1000 | – | 500 to 1000 | 50 to 100 | A (0% ≤ substrate protein remaining % ≤ 80%) | 10 to 50 | A (0% ≤ substrate protein remaining % ≤ 80%) | 500 to 1000 | 10 to 50 | A (0% ≤ substrate protein remaining % ≤ 80%) | A (0% ≤ substrate protein remaining % ≤ 80%) | A (0% ≤ substrate protein remaining % ≤ 80%) | A (0% ≤ substrate protein remaining % ≤ 80%) | 10 to 50 | 5 to 10 | 500 to 1000 | 10 to 50 | 500 to 1000 |
| O=C1CCC(N2Cc3cc(CN4CCC(c5noc6cc(F)ccc56)CC4)ccc3C2=O)C(=O)N1 (stereo not drawn) [GT-04254, 3-(5-((4-(6-fluorobenzo[d]isoxazol-3-yl)piperidin-1-yl)methyl)-1-oxoisoindolin-2-yl)piperidine-2,6-dione] | 100 to 500 | 100 to 500 | 500 to 1000 | 10 to 50 | A (0% ≤ substrate protein remaining % ≤ 80%) | 10 to 50 | A (0% ≤ substrate protein remaining % ≤ 80%) | 10 to 50 | 10 to 50 | A (0% ≤ substrate protein remaining % ≤ 80%) | A (0% ≤ substrate protein remaining % ≤ 80%) | A (0% ≤ substrate protein remaining % ≤ 80%) | A (0% ≤ substrate protein remaining % ≤ 80%) | 5 to 10 | – | – | – | – |
| COc1cccc(N2CCN(Cc3ccc4c(c3)CN(C3CCC(=O)NC3=O)C4=O)CC2)c1 (stereo not drawn) [GT-04448, 3-(5-((4-(3-methoxyphenyl)piperazin-1-yl)methyl)-1-oxoisoindolin-2-yl)piperidine-2,6-dione] | 500 to 1000 | – | 1000 to 1500 | 50 to 100 | A (0% ≤ substrate protein remaining % ≤ 80%) | 10 to 50 | A (0% ≤ substrate protein remaining % ≤ 80%) | 100 to 500 | 10 to 50 | A (0% ≤ substrate protein remaining % ≤ 80%) | A (0% ≤ substrate protein remaining % ≤ 80%) | A (0% ≤ substrate protein remaining % ≤ 80%) | A (0% ≤ substrate protein remaining % ≤ 80%) | 10 to 50 | 10 to 50 | 100 to 500 | 10 to 50 | 500 to 1000 |

Reference: patent publication EP4745137A1 (Gluetacs Therapeutics (Shanghai) Co., Ltd., priority 2023, dated 2025)
